Data: patent publication US8288438B2, “Methods for avoiding edema in the treatment or prevention of PPARγ-responsive diseases, including cancer” (Metabolex, Inc., priority 2005, dated 2012)

Experiments:
Format in all cases: in vivo
[1] = tested on: C57BL/6j ob/ob Mice; assay: glucose lowering activity of halofenate analogs in C57BL/6J ob/ob mice (Example 14); details: 125 mg/kg oral gavage once a day
Description: Male, 8-9 weeks old, C57BL/6J ob/ob mice were purchased from The Jackson Laboratory (Bar Harbor, Me., USA). Animals were housed (4-5 mice/cage) under standard laboratory conditions at 22±3° C. temperature and 50±20% relative humidity, and were maintained on a diet of Purina rodent chow and water ad libitum. Prior to treatment, blood was collected from the tail vein of each animal. Mice that had non-fasting plasma glucose levels between 250 and 500 mg/dl were used. Each treatment group consisted of 8-10 mice that were distributed so that the mean glucose levels were equivalent in each group at the start of the study. Mice were dosed orally by gavage once a day for 1-3 days with either vehicle, (−) halofenic acid, (±) analog 14, 29, 33, 34, 35, 36, 37, or 38 at 125 mg/kg or (−) analog 29, 36, 37 or 38 at 150 mg/kg. compounds were delivered in a liquid formulation containing 5% (v/v) dimethyl sulfoxide (DMSO), 1% (v/v) tween 80 and 0.9% (w/v) methylcellulose. The gavage volume was 10 ml/kg. Blood samples were taken at 6 hours after the each dose and analyzed for plasma glucose. Food intake and body weight were measured daily. Plasma glucose concentrations were determined calorimetrically using glucose oxidase method (Sigma Chemical Co, St. Louis, Mo., USA). Significant difference between groups (comparing drug-treated to vehicle-treated) was evaluated using the Student unpaired t-test.

[2] = tested on: C57BL/6j ob/ob Mice; assay: anti-diabetic activities in the C57BL/6j ob/ob Mice model (Example 20); details: for Insulin Level compared with vehicle: ob/ob mice, oral gavage; for minimal effective dose: Mus musculus, oral gavage once a day for 1-4 days, plasma glucose 6 hours after dose, read-out: Potency (glucose lowering)
Description: (§1) The anti-diabetic activities of the compounds were evaluated in the C57BL/6j ob/ob Mice model.
(§2) Male, 7-9 weeks old, C57BL/6J ob/ob mice were purchased from The Jackson Laboratory (Bar Harbor, Me., USA). Animals were housed (4-5 mice/cage) under standard laboratory conditions at 22±3° C. temperature and 50±20% relative humidity, and were maintained on a diet of Purina rodent chow and water ad libitum. Prior to treatment, blood was collected from the tail vein of each animal. Mice that had non-fasting plasma glucose levels between 250 and 500 mg/dl were used. Each treatment group consisted of 8-10 mice that were distributed so that the mean glucose levels were equivalent in each group at the start of the study. Mice were dosed orally by gavage once a day for 1-4 days with vehicle and one or more dose of test compound at a dose ranging from 5 to 125 mg/kg. compounds were delivered in a liquid formulation containing 5% (v/v) dimethyl sulfoxide (DMSO), 1% (v/v) Tween 80® and 0.9% (w/v) methylcellulose. The gavage volume was 10 ml/kg. Blood samples were taken at 6 hours after the each dose and analyzed for plasma glucose. Food intake and body weight were measured daily. Plasma glucose concentrations were determined colorimetrically using a commercial glucose oxidase method (Sigma Chemical Co, St. Louis, Mo., USA). Significant difference between groups (comparing drug-treated to vehicle-treated) was evaluated using the Student unpaired t-test.

[3] = tested on: C57BL/6j ob/ob Mice; assay: anti-diabetic activities in the C57BL/6j ob/ob Mice model (Example 13); details: for Insulin Level compared with vehicle: ob/ob mice, oral gavage; for Potency (glucose lowering): oral gavage once a day for 1-4 days, 5 to 125 mg/kg, plasma glucose 6 hours after dose
Description: as §1
as §2, with “80 (and” for “80® and”, “Blood samples were taken at 6 hours after the each dose and analyzed for plasma glucose.” left out, “Plasma glucose concentrations were determined colorimetrically using a commercial glucose oxidase method (Sigma Chemical Co, St.” left out, “t-test. […]” for “t-test.”

Compound | plasma glucose concentrations vs vehicle (in words) [1] | Insulin Level compared with vehicle [2] | Insulin Level compared with vehicle [3] | Potency (glucose lowering) [3] | minimal effective dose [2] [mg/kg]
CC(=O)NCCOC(=O)C(Oc1cccc(C(F)(F)F)c1)c1ccc(F)cc1 (racemic) [(±)Analog 14] | significantly lowered plasma glucose concentrations at 6, 30 and 54 hours |  |  |  | 
CC(=O)NCCOC(=O)C(Oc1cccc(C(F)(F)F)c1)c1ccc(Br)cc1 (racemic) [(±)Analog 29] | significantly lowered plasma glucose concentrations at 6, 30 and 54 hours |  |  |  | 
CCCCOC(=O)C(Oc1cccc(C(F)(F)F)c1)c1ccc(Cl)cc1 (racemic) [(±)Analog 33] | significantly lowered plasma glucose concentrations at 6 and 54 hours |  |  |  | 
CN(C)CCOC(=O)C(Oc1cccc(C(F)(F)F)c1)c1ccc(Cl)cc1 (racemic) [(±)Analog 35] | significantly lowered plasma glucose concentrations at 30 and 54 hours |  |  |  | 
O=C(O)C(Oc1ccc(C(F)(F)F)cc1)c1cccc(C(F)(F)F)c1 (racemic) [Compound 39, (4-trifluoromethyl-phenoxy)-(3-trifluoromethyl-phenyl)acetic acid] |  | Lower |  |  | 
O=C(O)C(Oc1ccccc1-c1nc2ccccc2o1)c1ccc(Cl)cc1 (racemic) [Compound I-1] |  |  | Lower | ++ (effective for glucose lowering at a dose of >25 mg/kg but <125 mg/kg) | 
O=C(O)C(Oc1ccccc1-c1nc2ccccc2o1)c1cccc(C(F)(F)F)c1 (racemic) [Compound I-3] |  |  | Lower | + (effective for glucose lowering at the dose of ≧125 mg/kg) | 
O=C(O)C(Oc1ccc(C(F)(F)F)cc1-c1nc2ccccc2o1)c1cccc(C(F)(F)F)c1 (racemic) [Compound I-89] |  |  | Lower | +++ (effective for glucose lowering at a dose of ≦25 mg/kg) | 
O=C(O)C(Oc1ccc(C(F)(F)F)cc1-c1nc2ccccc2o1)c1ccccc1 (racemic) [Compound I-92] |  |  | Lower | +++ (effective for glucose lowering at a dose of ≦25 mg/kg) | 
O=C(O)C(Oc1ccc(Cl)cc1-c1nc2ccccc2o1)c1ccc(Cl)cc1 (racemic) [Compound I-190] |  |  | Lower | +++ (effective for glucose lowering at a dose of ≦25 mg/kg) | 
O=C(O)C(Oc1ccc(Cl)cc1-c1nc2ccccc2o1)c1cccc(C(F)(F)F)c1 (racemic) [Compound I-191] |  |  | Lower | +++ (effective for glucose lowering at a dose of ≦25 mg/kg) | 
COc1ccc(C(Oc2ccc(Cl)cc2-c2nc3ccccc3o2)C(=O)O)cc1 (racemic) [Compound I-193] |  |  | Lower | +++ (effective for glucose lowering at a dose of ≦25 mg/kg) | 
O=C(O)C(Oc1ccc(Cl)cc1-c1nc2ccccc2o1)c1cccc(Cl)c1 (racemic) [Compound I-194] |  |  | Lower | +++ (effective for glucose lowering at a dose of ≦25 mg/kg) | 
O=C(O)C(Oc1ccc(C(F)(F)F)cc1-c1nc2ccccc2o1)c1ccc(Cl)cc1 (single isomer, unassigned) [Compound I-372] |  |  | Lower | +++ (effective for glucose lowering at a dose of ≦25 mg/kg) | 
O=C(O)C(Oc1ccc(C(F)(F)F)cc1)c1cccc(C(F)(F)F)c1 (single isomer, unassigned; (-)) [(−)-39, (4-trifluoromethyl-phenoxy)-(3-trifluoromethyl-phenyl)acetic acid] |  | Lower |  |  | ≤ 125
O=C(O)C(Oc1cc(C(F)(F)F)cc(C(F)(F)F)c1)c1ccc(C(F)(F)F)cc1 (centres unmarked) [Compound 81] |  | Lower |  |  | ≤ 125
O=C(O)C(Oc1ccc(C(F)(F)F)cc1)c1ccc(C(F)(F)F)cc1 (centres unmarked) [Compound 83] |  | Lower |  |  | ≤ 125

Compound | plasma glucose concentrations vs vehicle (in words) [1] | Insulin Level compared with vehicle [2] | Insulin Level compared with vehicle [3] | Potency (glucose lowering) [3] | minimal effective dose [2] [mg/kg]
O=C(O)C(Oc1ccc(C(F)(F)F)cc1Cl)c1cccc(C(F)(F)F)c1 (centres unmarked) [Compound 85] |  | Lower |  |  | ≤ 125
O=C(O)C(Oc1cccc(C(F)(F)F)c1)c1ccc(C(F)(F)F)cc1 (centres unmarked) [Compound 86] |  | Lower |  |  | ≤ 125
O=C(O)C(Oc1ccc(C(F)(F)F)cc1Cl)c1ccc(C(F)(F)F)cc1 (centres unmarked) [Compound 89] |  | Lower |  |  | ≤ 125
O=C(O)C(Oc1ccc(C(F)(F)F)cn1)c1cccc(C(F)(F)F)c1 (centres unmarked) [Compound 100, (3-Trifluoromethyl-phenyl)-(5-trifluoromethyl-pyridin-2-yloxy)-acetic acid] |  | Lower |  |  | ≤ 125
CC(Oc1ccc(C(F)(F)F)cc1)(C(=O)O)c1cccc(C(F)(F)F)c1 (centres unmarked) [Compound 120, 2-(4-trifluoromethyl-phenoxy)-2-(3-trifluoromethyl-phenyl)propionic acid] |  | Lower |  |  | ≤ 125
CC(Oc1ccc(C(F)(F)F)cc1)(C(=O)O)c1ccc(C(F)(F)F)cc1 (centres unmarked) [Compound 121, 2-(4-Trifluoromethyl-phenoxy)-2-(4-trifluoromethyl-phenyl)-propionic acid] |  | Lower |  |  | ≤ 125
OCC(Oc1ccc(C(F)(F)F)cc1)c1ccc(C(F)(F)F)cc1 (centres unmarked) [Compound 128] |  | Lower |  |  | ≤ 125
CC(=O)NCCOC(=O)C(Oc1ccc(C(F)(F)F)cc1)c1cccc(C(F)(F)F)c1 (centres unmarked) [Compound 136, (4-trifluoromethyl-phenoxy)-(3-trifluoromethyl-phenyl)-acetic acid 2-acetylamino-ethyl ester] |  | Lower |  |  | ≤ 125
CC(=O)NCCOC(=O)C(Oc1cccc(C(F)(F)F)c1)c1ccc(C(F)(F)F)cc1 (centres unmarked) [Compound 142] |  | Lower |  |  | ≤ 125
CC(=O)NCCOC(=O)C(Oc1cc(C(F)(F)F)cc(C(F)(F)F)c1)c1ccc(C(F)(F)F)cc1 (centres unmarked) [Compound 143] |  | Lower |  |  | ≤ 125
CC(=O)NCCOC(=O)C(Oc1cccc(C(F)(F)F)c1)c1cccc(C(F)(F)F)c1 (centres unmarked) [Compound 144] |  | Lower |  |  | ≤ 125
CC(=O)NCCOC(=O)C(Oc1ccc(C(F)(F)F)cc1)c1ccc(C(F)(F)F)cc1 (centres unmarked) [Compound 145] |  | Lower |  |  | ≤ 125
CC(=O)NCCOC(=O)C(Oc1ccccc1C(F)(F)F)c1ccc(C(F)(F)F)cc1 (centres unmarked) [Compound 146] |  | Lower |  |  | > 125
CC(=O)NCCOC(=O)C(Oc1cccc(C(F)(F)F)c1)c1ccccc1C(F)(F)F (centres unmarked) [Compound 147] |  | Lower |  |  | > 125
O=C(O)C(Oc1ccc(C(F)(F)F)cc1-c1nc2ccccc2o1)c1ccccc1 (centres unmarked) [Compound I-369] |  |  | Lower | +++ (effective for glucose lowering at a dose of ≦25 mg/kg) | 
CC(Oc1ccc(C(F)(F)F)cc1-c1nc2ccccc2o1)(C(=O)O)c1ccccc1 (centres unmarked) [Ia-365] |  |  | Lower | +++ (effective for glucose lowering at a dose of ≦25 mg/kg) | 
CC(Oc1ccc(C(F)(F)F)cc1-c1nc2ccccc2o1)(C(=O)O)c1ccccc1 (centres unmarked) [Ia-366] |  |  | Lower |  | 
